This note sets out measurements from patent US6979747B2, “Antioxidants, preparation processes and their uses” (Centre National de la Recherche Scientifique (CNRS), priority 1999, dated 2005).

Data set [1] relates to HIV-1/Ba-L. In words: Antiviral activity in MDM cultures infected with HIV-1/Ba-L (RT activity in culture supernatants). The settings on record: for antiviral activity (in words): second series, compounds dissolved in DMSO then diluted, MDMs, HIV-1/Ba-L; for EC50: Human immunodeficiency virus 1, BAL, MDMs infected with 10 000 TCID50s HIV-1/Ba-L (m.o.i. 0.01), read-out: inhibiting concentration (50% effective dose). In kind it is cell-based. As for the experimental part: A million monocytes in 1 ml of culture medium A are distributed in each well of a 48 well plate (Becton-Dickinson). The monocytes are left to differentiate into macrophages for 7 days. The macrophages thus differentiated are maintained in culture in medium A.
(§1) The MDMs were infected with the reference isolate with macrophage tropism, HIV-1/Ba-L. The PBMCs and the PBLs were infected with the reference isolate with lymphocyte tropism HIV-1 LAI. The viral stock were formed by amplifying these strains in vitro using umbilical blood mononucleated cells (UBM(s) preactivated with 1 μg/ml of PHA-P and cultured in medium A supplemented by 20 IU/ml of IL-2. In order to remove the soluble factors, such as cytokines, the culture supernatants were ultracentrifuged at 360 000 g for 5 min, and the pellets were resuspended in RPMI 1640. The viral stocks thus formed were subsequently titred using PBMCs activated with PHA-P. The TCID50s (50% Tissue Culture Infectious Dose) were calculated using the Kärber formula.
(§2) A million MDMs were infected with 10 000 TCID50s of the HIV-1/Ba-L strain. This amount of virus corresponds to a multiplicity of infection (m.o.i.) equal to 0.01. The excess of virus is removed 24 h after by washing with cells using RPMI 1640. The PBLs and the PBMCs were infected with 10 000 TCID50s of the HIV-1 LAI strain (moi=0.01). The cells were washed at the end of the second day of infection.
(§3) The viral replication is measured by assaying the RT activity in the culture supernatants according to the technique described by F. Rey et al. (Biochem. Biophys. Res. Comm., 1984, 121, 126-133). The radioactivity incorporated during the extension of the complementary strand of a poly-rA synthetic matrix in the presence of an oligo-dT12-18 primer and of a radiolabeled substrate, [^3H-methyl]thymidine-5′-triphosphate ([^3H]TPP), makes it possible to assay the enzymatic activity of RT. 400 μl of supernatant are ultracentrifuged at 360 000 g for 5 min. The RT is released by lysis of the viral pellet in 20 μl of NTE-Triton (100 mM NaCl, 10 mM Tris, 1 mM EDTA, 0.1% Triton X-100). These 20 μl are subsequently incubated with 40 μl of the following reaction mixture: 62.5 mM Tris, pH 7.8; 25 mM KCl; 6.25 mM MgCl2; 1.25 mM dithiothreitol (DTT); 2.5×10^−3 ODU oligo-dT12-18 and poly-rA, 5.55×10^−3 TBq {^3H]TTP. After one hour at 37° C., the enzymatic reaction is halted and the newly synthesized strands are precipitated for 20 min at 4° C. by the addition of 1 ml of sodium pyrophosphate (NaPP), of 50 μl of yeast DNA (0.1 mg/ml in 5% trichluoroacetic acid (TCA)), and of 4 ml of 20% TCA. The mixture is filtered using a cellulose acetate membrane (Millipore) which retains the radiolabeled poly-dT chains. The filter is washed using 20 ml of 5% TCA and the residual water is removed by addition of 25 μl of 70% ethanol. The filter is dried in an oven for 10 minutes at 80° C. and is then introduced into vials containing 8 ml of liquid scintillant. The β radioactivity is quantified by means of a scintillation counter (Packard Bell). The results are expressed in pM of [^3H]-TMP incorporated/h/ml of supernatant or, more simply, in cpm/h/ml.
The 50% effective doses (ED50) are calculated from the cumulative RT activities using the software “Dose-effects analysis with microcomputers” developed by J. Chou & T. C. Chou.

The test system of data set [2] is MDMs. Put plainly: Cytotoxicity with respect to MDMs (neutral red). The format is cell-based, human. As for the experimental part:
These tests are carried out systematically in parallel with the evaluation of the antiviral activity. In view of the oxidation/reduction capacity of the molecules tested, the test with the tetrazolium salt, which measures the activity of mitochondrial dehydrogenases, cannot be used.
Neutral red (NR) is a vital dye which makes it possible to measure the viability of adherent cells, such as MDMs. 600 μl of culture supernatant are removed and replaced with 400 μl of an NR solution (0.001% m/v in phosphate buffer, PBS, Boehringer Mannheim), filtered at 0.45 μm. The cells were incubated for 1 h at 37° C. and are subsequently washed (2×1 ml of PBS). The cells are then lysed at −20° C. with 200 μl of a 50% ethanol mixture comprising 1% of glacial acetic acid. The OD is measured twice with 100 μl of solution using a spectrophotometer.

Data set [3] deals with GSH. Put plainly: Intracellular GSH in MDMs infected with HIV-1/Ba-L. The format is cell-based, human. The settings on record: conditions of stress. As for the experimental part: The intracellular GSH was assayed by means of the assay kit sold by Cayman. This method for assaying glutathione is an adaptation of that described by O. W. Griffith et al. (1980).
The compound I-152 and its derivatives are prepared extemporaneously by being dissolved in dimethyl sulfoxide (DMSO) at the concentration of 100 mM. They are subsequently stored at −20° C. after having been diluted 10 fold in phosphate buffer (PBS).

For data set [4], the system named is total glutathione (GSH+GSSG). Put plainly: Total intracellular glutathione in quiescent PBMCs. The format is cell-based, human. The settings on record: quiescent PBMCs; for effect on intracellular level of glutathione (in words): 24 h treatment.
The subject of data set [5] is HIV-1 LAI. Put plainly: Antiviral activity in quiescent or PHA-P activated PBMCs infected with HIV-1 LAI. The format is cell-based. The settings on record: quiescent and activated PBMCs, at known cytotoxic doses (so in the source). Here is the method: (§4) For some experiments, the PBMCs and the PBLs are activated for 48 h with 1 μg/ml of a mitogen, PHA-P (Difco Laboratories). The PBMCs and the PBLs are cultured in medium A (quiescent) or B (activated). The cells are cultured at 37° C. in an atmosphere saturated with moisture under 5% of CO2. The culture supernatants are removed and the culture media are replaced every three or four days. At each renewal of the culture media, the cell viability is evaluated by coloring with trypan blue or by microscopic observation.
as §1, §2, §3
The PBMCs, quiescent or activated by PHA-P, were infected by the reference strain with lymphocyte tropism HIV-1 LAI. All the culturings were carried out in parallel and the drugs were maintained throughout the culturing.

Data set [6] has as its system HIV-1 LAI. In words: Antiviral activity in quiescent or PHA-P activated PBLs infected with HIV-1 LAI. The format is cell-based. The settings on record: quiescent PBLs or PBLs activated by PHA-P. As for the experimental part:
as §4, §1
A million MDMs were infected with 10 000 TCID50s of the HIV-1/Ba-L strain. This amount of virus corresponds to a multiplicity of infection (m.o.i.) equal to 0.01. The excess of virus is removed 24 h after by washing with cells using RPMI 1640. […]
The viral replication is measured by assaying the RT activity in the culture supernatants according to the technique described by F. Rey et al. (Biochem. Biophys. Res. Comm., 1984, 121, 126-133). The radioactivity incorporated during the extension of the complementary strand of a poly-rA synthetic matrix in the presence of an oligo-dT12-18 primer and of a radiolabeled substrate, [^3H-methyl]thymidine-5′-triphosphate ([^3H]TPP), makes it possible to assay the enzymatic activity of RT. […] The β radioactivity is quantified by means of a scintillation counter (Packard Bell). […]

The target of data set [7] is T1, RT of the HIV-1 LAI isolate (Human immunodeficiency virus type 1 group M subtype B, UniProt P03367).
T1 construct: The RT is released by lysis of the viral pellet in 20 μl of NTE-Triton; endogenous in cells; host or cells: Virions pelleted by ultracentrifugation from supernatants of infected cell cultures
In words: Acellular test of the enzymatic activity of RT. The format is biochemical. As to conditions: for decrease of RT activity: 500 μM. As for the experimental part:
as §3
The I-152 molecule is composed of NAC and MEA, which are capable of inhibiting the activity of RT (A. Bergamini et al., J. Clin. Invest., 1994, 93, 2251-2257). For this reason, the inhibiting capacity of I-152 with respect to the RT activity was measured using an acellular test. This test was carried out according to the protocol described above (§ 3.3.3.1.). In the reaction mixture, only the 20 μl of water are replaced by 20 μl of a concentration of I-152 or of the reference compounds. Heparin, known for inhibiting the activity of RT and of the other DNA polymerases, is used as positive control for inhibition.

Data set [8] relates to PBLs. As to conditions: PBL cultures.
Data set [9] concerns PBMCs. As to conditions: PBMC cultures.
For data set [10], the system named is HIV provirus. In words: Quantification of proviral DNAs by PCR (integration of the provirus within the cell genome). The format is cell-based. As to conditions: 10 μM. Here is the method: I-152 is composed of MEA and NAC, which are capable of interacting with the early phases of the biological cycle of HIV. It is therefore capable of decreasing the integration of the provirus into the cell genome. In order to measure these effects, the proviral DNAs were quantified by PCR. The cells were lysed using 1 ml of the following lysis solution: 10 mM Tris HCl pH 8; 100 mM of EDTA pH 8; 0.5% of sodium dodecyl sulfate (SDS); 20 μg/ml of DNAse-free bovine pancreatic RNAse. 200 μg/ml of proteinase K are subsequently added to this suspension. The DNAs were subsequently extracted using 1 ml of an ice-cold saturated phenol solution and 1 ml of a […] solution.
The viral DNAs were then amplified by means of specific primers of the gag gene (SK01/SK39) and of a standard range of the 8E5 line, a chronically infected line, the cells of which carry a proviral copy. The β-globin gene was used as reporter gene in order to make sure of the quality of the DNA extraction.

On to `CC(=O)N[C@@H](CSC(=O)C(C)(C)C)C(=O)NCCSC(C)=O` [I-178, N-(N-acetyl-S-pivaloyl-L-cysteinyl)-S-acetylcysteamine], for which, in data set [1], the “antiviral activity (in words)” value was “activities similar to that of I-152”.
Turning to `CC(=O)N[C@@H](CS)C(=O)O` [NAC, N-Acetyl-L-cysteine], the cytotoxicity in data set [2] (MDMs, 15 mM) was 70%; in data set [2] (MDMs, 40 mM), 91%. For the same compound, the “cytotoxicity at antiviral doses (in words)” value in data set [2] (MDMs) is listed as “cytotoxic”. The “regeneration of GSH under conditions of stress (in words)” value in [3] is listed as “ineffective”. In addition, the “effect on intracellular level of glutathione (in words)” value in [4] is listed as “better at increasing the intracellular level of glutathione”. Further, the “intracellular concentration of total glutathione” value in data set [4] (dose 15 mM) was about 2.64 ± 0.13 µM. The “inhibition of viral replication (in words)” value in [5] was “do not inhibit viral replication”. Moreover, the “antiviral activity (in words)” value in data set [6] is “do not have or have a very slight antiviral activity”. For the same compound, the EC50 in data set [1] is 9.4 mM. The “inhibiting activity with respect to RT (in words)” value in [7] (acellular system) is “do not exhibit an inhibiting activity”.
For `CC(=O)N[C@@H](CSC(C)=O)C(=O)NCCSC(C)=O` [I-176, N-(N,S-bisacetyl-L-cysteinyl)-S-acetylcysteamine], the “cytotoxicity (in words)” value in [2] (FIG. 12, at the dose tested) is “cytotoxic”. For the same compound, the “toxicity (in words)” value in [2] (MDMs, 150 μM, second series in DMSO) is listed as “slightly toxic”.
Turning to `CC(=O)N[C@@H](CSC(=O)C(C)C)C(=O)NCCSC(C)=O` [I-177, N-(N-acetyl-S-isobutyryl-L-cysteinyl)-S-acetylcysteamine], the “antiviral activity (in words)” value in [1] is “activities similar to that of I-152”.
Take heparin: in [7] (1 mg/ml, acellular), the “inhibition of RT activity (in words)” value is recorded as “completely inhibits”.
As for `NCCS` [MEA, cysteamine, reference compound], in data set [2] (MDMs, 500 μM), the “decrease of the viability of MDMs” value came out at 65%. Further, in data set [2] (MDMs), the “cytotoxicity at antiviral doses (in words)” value is recorded as “cytotoxic”. In addition, the “dose from which cytotoxic” value in data set [8] and in [9] was 500 µM in each case. The “regeneration of GSH under conditions of stress (in words)” value in [3] is reported as “ineffective”. Besides, the “intracellular glutathione at high concentration (in words)” value in data set [4] (500 μM) was “decrease”. The “effect on intracellular level of glutathione (in words)” value in data set [4] was “does not significantly alter the intracellular level of glutathione”. Besides, in data set [5], the “inhibition of viral replication (in words)” value was “do not inhibit viral replication”. Also, the “antiviral activity (in words)” value in [6] is listed as “do not have or have a very slight antiviral activity”. In addition, the EC50 in [1] was determined as 0.3 mM. Moreover, the “decrease of RT activity” value in data set [7] (exp. 1) is recorded as 29±1%; in data set [7] (exp. 2), 48±4%.
For the compound `Cc1cn([C@H]2C[C@H](N=[N+]=[N-])[C@@H](CO)O2)c(=O)[nH]c1=O` [AZT, 3′-azido-3′-deoxythymidine, reference compound], in data set [10], the “inhibition of integration of the provirus (in words)” value was “perfect”.
